US20230136562A1, “SPIROUREA DERIVATIVES” (Idorsia Pharmaceuticals Ltd, priority 2020, published 2023)

Key:
DBA/2J mice = test: Audiogenic seizure-sensitive mouse model of generalized convulsive seizures (AGS); assay type: in vivo; conditions: challenge 1 h, 90% MC 0.5% + 10% PEG400, read-out: Seizure stage [% vs. vehicle]
Procedure: (§1) Formulation and Administration.
(§2) Compounds were formulated in a 10% polyethylene glycol 400 (PEG 400)/90% aqueous solution of 0.5% methylcellulose (MC 0.5%). Firstly drugs are dissolved in PEG 400 and then suspended in MC 0.5% for oral gavage at X mg/5 mL/kg (X see table).
Audiogenic Seizure-Sensitive Mouse Model of Generalized Convulsive Seizures
1. Procedure: Following two days of acclimatisation, auditory seizures are induced in male juvenile DBA/2J mice (22-24 days old). Each mouse is placed individually in the exposure chamber, an hemispheric acrylic glass dome (diameter: 50 cm) within a sound-attenuated box. The sound-attenuated box is equipped with two house lights and a camera system (Fire-I from Unibrain) in order to observe and record the behavioral seizure response. After 60 seconds of habituation, the stimulus, a mixed frequency tone of 15-20 kHz at 110 dB (SASLab Lite, Avisoft Bioacoustics), is played from a speaker that is placed on the top center of the dome. […] Seizures are classified as following: stage 0, normal behavior; stage 1, wild running; stage 2, generalized clonus; stage 3, tonic extension of the hind limbs.
2. Compounds testing: Acute compound effects on audiogenic generalized convulsive seizures are evaluated in independent groups of 8-10 mice randomly assigned. Following oral administration of compound or vehicle, the maximum seizure stage during sound exposure is assessed. Compounds are given 1 hour before exposure to the stimulus. Each mouse is exposed to the auditory stimulus only once and euthanized afterwards by CO2 inhalation.

Wistar rats = test: Amygdala-kindling rat model; assay type: in vivo; conditions: formulation 90% MC 0.5% + 10% PEG400
Procedure: as §1, §2
Amygdala-Kindling Rat Model:
1. Procedure: Adult male Wistar rats (Harlan Laboratories, Netherlands, or Charles Rivers, Germany; body weight 300-350 g) were stereotaxically implanted with twisted bipolar plastic-coated stainless steel electrode (MS333-2-BIU 10 mm, Plastics One) into the right basolateral amygdala under isoflurane anesthesia. To place the electrode, trepanations were made in the skull and the electrode was lowered into the right basolateral amygdala (from bregma: anteriorposterior (AP): −2.5 mm, medio-lateral (ML): −3.5 mm, dorso-ventral (DV): −8.6 mm; α=10°) and secured to the skull with screws and dental acrylate. After one week of recovery, they were handled daily and habituated over one week to the kindling set-up. Kindling procedure: For a kindling session each rat was placed individually into a smooth acrylic plastic, round-bottomed bowl (Ø 36 cm, height 36 cm, BASi movement-responsive caging system) and its intracranial implanted electrode was connected to the stimulator (STG4008, Multichannel Systems GmbH) and the recording devices (PowerLab 8/35, ADInstruments Ltd) via a cable (335-340/3 (C), Plastics One). For the kindling procedure, each rat was exposed once daily to an electrical stimulation and the behavioral symptoms of the evoked seizure were observed and classified according to the modified Racine scale (stage 0, arrest, wet dog shakes, normal behaviour; stage 1, facial twitches: nose, lips, eyes; stage 2, chewing, head nodding; stage 3, forelimb clonus; stage 4, rearing, falling on forelimbs; stage 5, rearing, falling on side or back, rolling). The electrical stimulus consists of a 1s-train of 50 Hz square-wave biphasic pulses of 1-ms duration at an intensity of 400 μA (suprathreshold intensity). […] Data Scoring and analysis. The duration of electroencephalographic seizures (afterdischarge, AD) was recorded using LabChart7 Pro software (ADlnstruments Ltd). Simultaneously, videos were recorded to evaluate seizure stage (SS).
2. Compound testing: Acute drug effects were evaluated in groups of 6-8 fully kindled rats in a randomized cross-over design with 48 h between drug and vehicle applications. Following oral administration of drug or vehicle, drug testing included determination of the afterdischarge threshold (the minimal stimulation intensity necessary to evoke an afterdischarge (electroencephalographically measured neuronal hyper-synchronous activity with an amplitude 2-times higher than baseline amplitude and a frequency of ≥1 Hz) of at least 3 sec duration) and monitoring electroencephalographic and behavioral correlates of the evoked seizure at ADT (afterdischarge threshold), including AD duration and SS, by a experimenter blind to treatment assignment.

Kv7.2/7.3 = biological target: T1, Kv7.2/7.3 (Homo sapiens, UniProt O43525+O43526); test: Kv7.2/3 assay (FLIPR potassium assay, agonist mode); assay type: cell-based; conditions: Kv7.2/7.3 activation; HEK293 cells, human KCNQ2 and KCNQ3
T1 construct: expressed in transfected cells; host or cells: HEK293
Procedure: HEK293 cells were stably transfected with the appropriate ion channel cDNA(s) (human KCNQ2 and KCNQ3 genes). Cells were cultured in Dulbecco's Modified Eagle Medium/Nutrient mixture F-12 (D-MEM/F-12) supplemented with 10% fetal bovine serum, 100 U/mL penicillin G sodium, 100 µg/mL streptomycin sulfate and selection antibiotics. FLIPR Test Procedure: For FLIPR assay, cells were plated in 384-well black clear-bottomed microtiter plates (BD Biocoat Poly-D-Lysine Multiwell Cell Culture Plate) at 15'000 to 30'000 cells per well. Cells were incubated at 37° C. overnight or until cells reached sufficient density in the wells (near confluent monolayer) to use in fluorescence assays. […] Assays were performed with the FLIPR potassium assay kit (Molecular Devices) according to the manufacturer's instructions. Dye-loading: Growth media was removed and replaced with 20 μL of dye loading buffer for 60 min at room temperature. FLIPR Recording (agonist mode): Stock solutions of test compounds were prepared at a concentration of 33.3 mM in DMSO. 5 μL of 5× concentrated test, vehicle, or control compounds solutions prepared in the stimulation buffer (K^+-free buffer with 5 mM TI^+) were added to each well and fluorescence recording was continued for 5 min. The agonist effect (EC50 and % effect) of test or control compounds on Kv7 channels was determined as follows: Raw data was exported using Screenworks® 4.2 software and the fluorescence traces were analysed using Microsoft Excel (Microsoft Corp., Redmond, Wash.). The test compounds responses were expressed as % of maximum response of the control compound Flupirtine (Sigma-Aldrich), which was tested at concentrations ranging from 0.03 to 100 μM. Concentration-response data were fitted to a Hill equation. Non-linear least squares fits were made assuming a simple binding model. If appropriate, fits were weighted by the standard deviation. No assumptions about the fit parameters were made; the fit parameters were determined by the algorithm.

[1] = 10 mg/kg po, time of challenge 15 min
[2] = 100 mg/kg po, time of challenge 1 h
[3] = 30 mg/kg po, time of challenge 1 h

SMILES | change in vivo at 5 mg/kg (DBA/2J mice; 5 mg/kg po) | AD duration [% vs veh] (Wistar rats; [1]) | Seizure stage [% vs veh] (Wistar rats; [1]) | EC50 (Kv7.2/7.3) | change in vivo at 30 mg/kg (DBA/2J mice; 30 mg/kg po) | AD duration [% vs veh] (Wistar rats; [2]) | Seizure stage [% vs veh] (Wistar rats; [2]) | change in vivo at 10 mg/kg (DBA/2J mice; 10 mg/kg po) | AD duration [% vs veh] (Wistar rats; [3]) | Seizure stage [% vs veh] (Wistar rats; [3])
O=C(NC1CC2(CC2)C1)N[C@@H](CO)c1cccc(C(F)(F)F)c1 (single isomer, unassigned) [Example 186] | -67% | −87 % vs veh | −50 % vs veh | 23 nM |  |  |  |  |  | 
O=C(NCc1cccc(C(F)(F)F)c1)NC1CC2(CC2)C1 [Example 2, 1-Spiro[2.3]hex-5-yl-3-(3-trifluoromethyl-benzyl)-urea] |  |  |  | 70 nM | -95% | −93 % vs veh | −88 % vs veh |  |  | 
O=C(NCc1cc(OCC(F)(F)F)ncn1)NC1CC2(CCC2)C1 [Example 59, 1-Spiro[3.3]hept-2-yl-3-[6-(2,2,2-trifluoro-ethoxy)-pyrimidin-4-ylmethyl]-urea] |  |  |  | 12.4 nM |  |  |  | -70% | −96 % vs veh | −83 % vs veh
